Experiments:
MDCK cells [1] = tested on: MDCK cells
Method: This example describes a technique that uses cross-electrode impedance mapping to quantify adhesion or adherence of cells in a cell culture. The terms “adhesion” and “adherence” may be used interchangeably herein.
In this example, ethylenediaminetetraacetic acid (EDTA) was applied to the cells. EDTA is a calcium chelator that removes Ca^2+ needed for integrin proteins to maintain cell adhesion. With EDTA applied, the cells quickly detached over a duration of time of about 50 min. The EDTA was then washed out by adding normal culture media, where the cells re-attached over a duration of time of about 200 min.
FIG. 6b is a data plot showing mean normalized impedance values over time for different regions of a map 601 of an electrode array in the cell culture. FIG. 6c show histograms of the normalized impedance values before, during, and after a washout of EDTA across the electrode array.

MDCK cells [2] = assay: Wound healing assay (electrochemical patterning and cross-electrode impedance mapping of regrowth); format: cell-based, Canine; details: 1 μM, over the course of 72 hours; control culture shows regrowth after 72 hours
Description: This example describes a combined application of cross-electrode impedance mapping and cell patterning for a wound healing assay. Such assays may be used to gauge cell growth rate and metabolism and may be useful for screening drugs affecting these parameters. Compared to the electrochemical patterning described herein, other tools mechanically generate a wound in a cell culture via a mechanical scratch which is both difficult to control and limiting in terms of wound pattern.
In this example, a wound is made in MDCK cells and then growth is mapped in real time. […] These patterns were defined by applying electrode currents of −10 nA for 40 s versus a Ag/AgCl pseudo reference electrode. The regrowth of the culture was then measured using the impedance mapping method.

| SMILES | duration of time over which the cells detached (MDCK cells [1]; 5 mM EDTA application) | duration of time over which the cells re-attached after washout (MDCK cells [1]; EDTA washed out by adding normal culture media) | regrowth of the culture into the wound (MDCK cells [2]) |
| --- | --- | --- | --- |
| O=C(O)CN(CCN(CC(=O)O)CC(=O)O)CC(=O)O [EDTA, ethylenediaminetetraacetic acid] | about 50 min | about 200 min |  |
| C=C1[C@@H](C)[C@H]2[C@H](Cc3ccccc3)NC(=O)[C@]23OC(=O)/C=C/[C@H](O)CCC[C@@H](C)C/C=C/[C@H]3[C@@H]1O [cytochalasin B] |  |  | very little growth |
